For orientation: Solubility means the dissolved amount per volume that the medium holds. Read a low Solubility as a poorly soluble substance. As a reminder, the solubility is how much of the substance goes into solution per volume.

≈ marks a conversion by molar mass, not a printed value.

These results are taken from patent US10975087B2, “Solid forms of tetrahydropyranyl amino-pyrrolopyrimidinone compounds” (ArQule, Inc., priority 2018, dated 2021).

Assay type in all cases: physicochemical
Data set [1] in a line: Thermodynamic solubility pH measurements. The settings on record: for Solubility (mg/mL) / Solubility: 48 hours. The protocol:
After 2 hours at 25° C., the pH of each slurry was measured and the pH was adjusted, where required. After 24 hours at 25° C., the pH of each slurry was measured and the pH was adjusted, where required. After 48 hours at 25° C., the slurries were separated by centrifugation. The solids were analyzed by XRPD, while the pH of the separated liquors were also measured.

Data set [2] is described as follows: Gravimetric vapor sorption (GVS). The settings on record: for Post-GVS analysis (form): after exposure to elevated humidity; for XRPD post GVS: cell wraps: Remained | unchanged; for GVS (hygroscopicity): summary Table 11. On the procedure:
Approximately 10-20 mg of sample was placed into a mesh vapor sorption balance pan and loaded into an IGASorp Moisture Sorption Analyzer balance by Hiden Analytical. The sample was subjected to a ramping profile from 40-90% relative humidity (RH) at 10% increments, maintaining the sample at each step until a stable weight had been achieved (98% step completion). After completion of the sorption cycle, the sample was dried using the same procedure to 0% RH, and finally taken back to the starting point of 40% RH. Two cycles were performed. The weight change during the sorption/desorption cycles were plotted, allowing for the hygroscopic nature of the sample to be determined.

Data set [3] can be described thus: 7 day stability testing, open vials at 40° C./75% RH, ambient and 80° C. The conditions noted are these: for Purity after 1 week (%) / area % purity and form changes after 1 week: open vials; for T = 0 purity (%): T = 0, before storage; for area % purity and form changes after 1 week: ambient, 40° C./75% RH and 80° C.
A further data set is described as follows: Aqueous solubility. The settings on record: for Solubility (mg/mL): Water; for Form: XRPD of damp solid after slurrying in Water, AXRPD: Amorphous by XRPD, but limited material for analysis; for XRPD post aqueous solubility: amorphous: Form 1 from solubility screen, Form 8: Amorphous, limited material. On the procedure: (§1) Aqueous and acetone solubility was carried out using 3-10 mg of material, depending on availability, and slurrying in 150-200 μL of acetone or 300 μL of deionized water. The samples were agitated at ambient temperature then filtered by centrifugation (0.22 μm nylon filter) after ca. 24 hours and the solids analyzed by XRPD as damp solids. The filtrates were analyzed by HPLC for concentration determination. The water solubility was too low for detection using the current analytical method.

Another data set in a line: Acetone solubility. The conditions noted are these: for Form: XRPD of damp solid after slurrying in Acetone, *Small amount of material analyzed; for Acetone solubility: residual solid: form of residual solid, amorphous input: Form 2 residual solid with additional peaks; for Acetone solubility: summary Table 11. On the procedure:
as §1

A further data set can be described thus: Competitive slurrying. The conditions noted are these: ca. 48 hours; for form observed after competitive slurrying (XRPD): ambient and 50° C., acetone, ethanol, acetonitrile; for Form (competitive slurrying result): XRPD. On the procedure: Approximately 5 mg of each form (Form 1 and Form 4, Form 1 and Form 8, and Form 4 and Form 8) was weighed and agitated at ambient and 50° C. in minimal acetone, ethanol, diisopropyl ether (DIPE) and acetonitrile. Approximately 8 drops of each solvent was added and the samples were then agitated for ca. 48 hours, before being analyzed by XRPD. Table 9 details the conditions.

Setting [4] is: ambient temperature, ca. 24 hours.
[5] abbreviates: deionized water, ambient temperature, ca. 24 hours.
Where [6] appears, read: summary Table 11, HPLC of filtrate.
The mark [7] stands for this setting: acetone, ambient temperature, ca. 24 hours.

In the case of `O=C(c1ccc(Oc2ccccc2)cc1Cl)c1c[nH]c2ncnc(N[C@@H]3CC[C@@H](CO)OC3)c12.O=S(=O)(O)CCS(=O)(=O)O` [Edisylate Pattern 1], the “pH - 2 Hours at 25° C.” value worked out at 2.32 in data set [1] (Input Solvent Water), 0.17 in data set [1] (Input Solvent pH 1), 4.40 in data set [1] (Input Solvent pH 4.5) and 6.44 in data set [1] (Input Solvent pH 6.5). The “pH - 24 Hours at 25° C.” value in data set [1] (Input Solvent Water) was determined as 2.18; in data set [1] (Input Solvent pH 1) it was 0.70; in data set [1] (Input Solvent pH 4.5), 4.29; in data set [1] (Input Solvent pH 6.5) it was 6.03. In addition, the “pH - 48 Hours at 25° C.” value in data set [1] (Input Solvent Water) stood at 2.37; in data set [1] (Input Solvent pH 1) it was 1.11; in data set [1] (Input Solvent pH 4.5) it was 4.22; in data set [1] (Input Solvent pH 6.5), 5.68. The “Solubility (mg/mL)” value in data set [1] (Input Solvent Water, 25° C.) is given as “<LOD”; in data set [1] (Input Solvent pH 4.5, 25° C.), “<LOD”. For the same compound, the “Solubility” value in data set [1] (Input Solvent pH 1, 25° C.) is on record as 0.7 mg/mL; in data set [1] (Input Solvent pH 6.5, 25° C.), less than 0.1 mg/mL.
As to `O=C(c1ccc(Oc2ccccc2)cc1Cl)c1c[nH]c2ncnc(N[C@@H]3CC[C@@H](CO)OC3)c12` [Form 11, (2-chloro-4-phenoxyphenyl)(4-(((3R,6S)-6-(hydroxymethyl)tetrahydro-2H-pyran-3-yl)amino)-7H-pyrrolo[2,3-d]pyrimidin-5-yl)methanone], the “hygroscopic nature by GVS” value in data set [2] is reported as “non-hygroscopic”.
Regarding `O=C(c1ccc(Oc2ccccc2)cc1Cl)c1c[nH]c2ncnc(N[C@@H]3CC[C@@H](CO)OC3)c12` [Form 8, (2-chloro-4-phenoxyphenyl)(4-(((3R,6S)-6-(hydroxymethyl)tetrahydro-2H-pyran-3-yl)amino)-7H-pyrrolo[2,3-d]pyrimidin-5-yl)methanone], in data set [2], the “hygroscopic nature by GVS” value was “non-hygroscopic”, the “Post-GVS analysis (form)” value is listed as “remain Form 8”, the “XRPD post GVS” value is on record as “Remained” and the “GVS (hygroscopicity)” value is on record as 0.8% uptake. Also, the “uptake by GVS, first cycle” value in data set [2] (at 90% RH, first cycle) is on record as less than 0.3%. Moreover, the “uptake by GVS, second cycle” value in data set [2] (at 90% RH, second cycle) is recorded as 0.8%. Also, in data set [3] (40° C./75% RH), the “Purity after 1 week (%)” value is recorded as 99.0%. Further, the “Purity after 1 week (%)” value in data set [3] (80° C.) worked out at 99.0%. Also, the “Purity after 1 week (%)” value in data set [3] (Ambient) is listed as 99.0%. For the same compound, in data set [3], the “T = 0 purity (%)” value is 99.0%; the “area % purity and form changes after 1 week” value is listed as “no decrease in area % purity or form changes”. The “Solubility (mg/mL)” value in “Aqueous solubility” (setting [4]) is “API not detected”. In addition, in “Aqueous solubility”, the Form entry is listed as “AXRPD” and the “XRPD post aqueous solubility” value was “Amorphous,”. Moreover, in the data set “Aqueous solubility” (setting [5]), the aqueous solubility entry is listed as “not soluble”. The aqueous solubility entry in the data set “Aqueous solubility” (setting [6]) is listed as “API not detected”. In the data set “Acetone solubility”, the Form result was “Form 2*”, the “Acetone solubility: residual solid” value is recorded as “(Form 2 residual” and the Acetone solubility came to 11.5 mg/mL. Moreover, the “solid form after slurrying in acetone (XRPD)” value in “Acetone solubility” (setting [7]) is on record as “conversion to Form 2”. In addition, the solubility at 24 h in the data set “Acetone solubility” (acetone, organic solvent or mixture, thermodynamic from solid, Acetone, ambient temperature, ca. 24 hours, read-out: Solubility) is 11.5 mg/mL (≈ 24 mM).
On to `O=C(c1ccc(Oc2ccccc2)cc1Cl)c1c[nH]c2ncnc(N[C@@H]3CC[C@@H](CO)OC3)c12` [Form 4 and Form 8], for which, in the data set “Competitive slurrying” (DIPE), the “form observed after competitive slurrying (XRPD)” value is “Form 1 and Form 2 mixtures, pure Form 1, pure Form 4 and pure Form 2”.
Same read-out and setting: to `O=C(c1ccc(Oc2ccccc2)cc1Cl)c1c[nH]c2ncnc(N[C@@H]3CC[C@@H](CO)OC3)c12` [Form 1 and Form 4] belongs “Form 1 was the dominant form”.
Take `O=C(c1ccc(Oc2ccccc2)cc1Cl)c1c[nH]c2ncnc(N[C@@H]3CC[C@@H](CO)OC3)c12` [Form 4, (2-chloro-4-phenoxyphenyl)(4-(((3R,6S)-6-(hydroxymethyl)tetrahydro-2H-pyran-3-yl)amino)-7H-pyrrolo[2,3-d]pyrimidin-5-yl)methanone]: in data set [2], the “hygroscopic nature by GVS” value is listed as “non-hygroscopic”, the “Post-GVS analysis (form)” value was “remain Form 4”, the “XRPD post GVS” value was “Remained” and the “GVS (hygroscopicity)” value turned out to be 0.4% uptake. The “uptake by GVS” value in data set [2] (at 90% RH) is on record as 0.4%. Besides, the “Purity after 1 week (%)” value in data set [3] (40° C./75% RH) is 98.9%. The “Purity after 1 week (%)” value in data set [3] (80° C.) is listed as 98.9%. The “Purity after 1 week (%)” value in data set [3] (Ambient) was 98.9%. For the same compound, in data set [3], the “T = 0 purity (%)” value is 98.8%; the “area % purity and form changes after 1 week” value is on record as “no decrease in area % purity or form changes”. Further, the Stability testing result in data set [3] (cell wraps: No drop in purity or change in form) was “No drop in purity”. In “Aqueous solubility” (setting [4]), the “Solubility (mg/mL)” value was “API not detected”. In the data set “Aqueous solubility”, the Form result is on record as “Form 4” and the “XRPD post aqueous solubility” value was “Form 4”. For the same compound, in the data set “Aqueous solubility” (setting [5]), the aqueous solubility result was “not soluble”. Moreover, the aqueous solubility result in “Aqueous solubility” (setting [6]) was “API not detected”. Moreover, in “Acetone solubility”, the Form result was “Form 1”, the “Acetone solubility: residual solid” value was “(Form 1 residual” and the Acetone solubility was 15.1 mg/mL. Moreover, in “Acetone solubility” (setting [7]), the “Solubility” value is given as 15.1 mg/mL (≈ 31.5 mM) and the “solid form after slurrying in acetone (XRPD)” value is reported as “converted to the Form 1 polymorph”.
With `O=C(c1ccc(Oc2ccccc2)cc1Cl)c1c[nH]c2ncnc(N[C@@H]3CC[C@@H](CO)OC3)c12` [1 and 4], the “Form (competitive slurrying result)” value in the data set “Competitive slurrying” (DIPE, 50° C.) is on record as “Form 1”; in the data set “Competitive slurrying” (Ethanol, 50° C.), “Form 1”; in the data set “Competitive slurrying” (Ethanol, Ambient), “Form 1”.
On to `O=C(c1ccc(Oc2ccccc2)cc1Cl)c1c[nH]c2ncnc(N[C@@H]3CC[C@@H](CO)OC3)c12` [Form 1 and Form 8], for which the “form observed after competitive slurrying (XRPD)” value in the data set “Competitive slurrying” (DIPE) was “Form 1 was the dominant form”.
With `O=C(c1ccc(Oc2ccccc2)cc1Cl)c1c[nH]c2ncnc(N[C@@H]3CC[C@@H](CO)OC3)c12` [1 and 8], the “Form (competitive slurrying result)” value in “Competitive slurrying” (DIPE, 50° C.) is on record as “Form 1”; in the data set “Competitive slurrying” (Ethanol, 50° C.), “Form 1”; in the data set “Competitive slurrying” (Ethanol, Ambient), “Form 1”.
Turning to `O=C(c1ccc(Oc2ccccc2)cc1Cl)c1c[nH]c2ncnc(N[C@@H]3CC[C@@H](CO)OC3)c12` [4 and 8], the “Form (competitive slurrying result)” value in the data set “Competitive slurrying” (DIPE, 50° C.) was “Form 4”; in “Competitive slurrying” (Ethanol, 50° C.), “Form 1”; in “Competitive slurrying” (Ethanol, Ambient) it was “Form 1”.
